Assay results: patent publication US20170168073A1, “CHALCONE-UREA DERIVATIVES AS INSULIN SENSORS” (Agency for Science, Technology and Research, priority 2013, published 2017)

Legend:
serum albumin = experiment: Selectivity of fluorescence response to insulin over serum albumins (BSA, HSA, HSA lipid free); assay type: binding; conditions: over serum albumin (BSA, HSA, HSA lipid free; FIG. 1c)
Text: FIG. 1c is a graph showing the selectivity of Insulin Green to insulin over bovine serum albumin (BSA), human serum albumin (HSA) and HSA lipid free.

insulin = insulin (Homo sapiens, UniProt P01308); experiment: Fluorescence response of CLU compounds to insulin; assay type: binding
Sequence of insulin (P01308 25-54 limits assumed, species assumed): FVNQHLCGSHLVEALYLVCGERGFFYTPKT
Sequence of insulin (P01308 90-110 limits assumed, species assumed): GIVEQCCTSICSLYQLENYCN
Protocol: All the reagents and solvents were purchased from Aldrich, Alfa and Acros organics and used without further purification. All reactions were performed in oven-dried glassware under a positive pressure of nitrogen. Analytical TLC was carried out on Merck 60 F254 silica gel plate (0.25 mm layer thickness) and visualization was done with UV light. Column chromatography was performed on Merck 60 silica gel (230-400 mesh). NMR spectra were recorded on a Bruker Avance 300 NMR spectrometer. Chemical shifts are reported as 6 in units of parts per million (ppm) and coupling constants are reported as a J value in Hertz (Hz). Mass of all the compounds was determined by LC-MS of Agilent Technologies with an electrospray ionization source. Spectroscopic measurements were performed on a fluorometer and UV/VIS instrument, Synergy 4 of bioteck company and Gemini XS fluorescence plate reader. The slit width was 1 nm for both excitation and emission.
The present invention includes the synthesis of fluorescent chalcone-urea library (CLU), which was prepared on solid support. The CLU library was screened against four different concentrations of insulin (0.2, 0.1, 0.05 and 0.025 mg/mL) in HEPES buffer (20 mM, pH=7.4). Based on fluorescent intensity, 5 hits with more than 50-fold increase were selected (Table 2). CLU-381 was further derivatized due to the synthetic convenience to render 8 derivatives (Table 3).

selectivity for insulin over other proteins (serum albumin): good selectivity over other proteins
fluorescent increase to insulin (insulin; 200 μg/mL insulin (FIG. 1a)): 94 fold
responsiveness to insulin among the 8 CLU-381 derivatives (insulin; 8 derivatives tested against insulin): most responsive compound
SMILES: COc1ccc(CNC(=O)Nc2ccc(C(=O)/C=C/c3ccc(N(CCO)CCO)cc3)cc2)cc1 [Insulin Green]
